Experiments:
Liver [1] = experiment: Metabolic stability in rat liver assessed as beta-D-2'-Deoxy-2'-R-fluoro-2'-beta-C-methylguanosine level at 60 uCi, po after 1 hr; assay type: ADME, organism-based; settings: in vivo
Liver [2] = experiment: Metabolic stability in rat liver assessed as ((2R,3R,4R,5R)-5-(2-amino-6-oxo-1H-purin-9(6H)-yl)-4-fluoro-3-hydroxy-4-methyltetrahydrofuran-2-yl)methyl tetrahydrogen triphosphate level at 60 uCi, po after 6 hrs; assay type: ADME, organism-based; settings: in vivo
Plasma [3] = experiment: Metabolic stability in rat plasma assessed as (2S)-2-((((2R,3R,4R,5R)-5-(2-amino-6-methoxy-9H-purin-9-yl)-4-fluoro-3-hydroxy-4-methyltetrahydrofuran-2-yl)methoxy)(hydroxy)phosphorylamino)propanoic acid level at 60 uCi, po after 6 hrs; assay type: ADME, organism-based; settings: in vivo
Plasma [4] = experiment: Metabolic stability in rat plasma assessed as PSI-353661 level at 60 uCi, po after 6 hrs; assay type: ADME, organism-based; settings: in vivo
Liver [5] = experiment: Metabolic stability in rat liver assessed as ((2R,3R,4R,5R)-5-(2-amino-6-oxo-1H-purin-9(6H)-yl)-4-fluoro-3-hydroxy-4-methyltetrahydrofuran-2-yl)methyl tetrahydrogen triphosphate level at 60 uCi, po after 1 hr; assay type: ADME, organism-based; settings: in vivo
Liver [6] = experiment: Metabolic stability in rat liver assessed as ((2R,3R,4R,5R)-5-(2-amino-6-oxo-1H-purin-9(6H)-yl)-4-fluoro-3-hydroxy-4-methyltetrahydrofuran-2-yl)methyl trihydrogen diphosphate level at 60 uCi, po after 6 hrs; assay type: ADME, organism-based; settings: in vivo
Plasma [7] = experiment: Metabolic stability in rat plasma assessed as PSI-353661 level at 60 uCi, po after 1 hr; assay type: ADME, organism-based; settings: in vivo
Liver [8] = experiment: Metabolic stability in rat liver assessed as ((2R,3R,4R,5R)-5-(2-amino-6-oxo-1H-purin-9(6H)-yl)-4-fluoro-3-hydroxy-4-methyltetrahydrofuran-2-yl)methyl trihydrogen diphosphate level at 60 uCi, po after 1 hr; assay type: ADME, organism-based; settings: in vivo
Plasma [9] = experiment: Metabolic stability in rat plasma assessed as (2S)-isopropyl 2-((((2R,3R,4R,5R)-5-(2-amino-6-methoxy-9H-purin-9-yl)-4-fluoro-3-hydroxy-4-methyltetrahydrofuran-2-yl)methoxy)(phenoxy)phosphorylamino)propanoate level at 60 uCi, po after 6 hrs; assay type: ADME, organism-based; settings: in vivo
Plasma [10] = experiment: Metabolic stability in rat plasma assessed as (2S)-isopropyl 2-((((2R,3R,4R,5R)-5-(2-amino-6-methoxy-9H-purin-9-yl)-4-fluoro-3-hydroxy-4-methyltetrahydrofuran-2-yl)methoxy)(phenoxy)phosphorylamino)propanoate level at 60 uCi, po after 1 hr; assay type: ADME, organism-based; settings: in vivo
Liver [11] = experiment: Metabolic stability in rat liver assessed as (2S)-2-((((2R,3R,4R,5R)-5-(2-amino-6-methoxy-9H-purin-9-yl)-4-fluoro-3-hydroxy-4-methyltetrahydrofuran-2-yl)methoxy)(hydroxy)phosphorylamino)propanoic acid level at 60 uCi, po after 6 hrs; assay type: ADME, organism-based; settings: in vivo
Plasma [12] = experiment: Metabolic stability in rat plasma assessed as (2S)-2-((((2R,3R,4R,5R)-5-(2-amino-6-methoxy-9H-purin-9-yl)-4-fluoro-3-hydroxy-4-methyltetrahydrofuran-2-yl)methoxy)(hydroxy)phosphorylamino)propanoic acid level at 60 uCi, po after 1 hr; assay type: ADME, organism-based; settings: in vivo
Liver [13] = experiment: Metabolic stability in rat liver assessed as beta-D-2'-Deoxy-2'-R-fluoro-2'-beta-C-methylguanosine level at 60 uCi, po after 6 hrs; assay type: ADME, organism-based; settings: in vivo
Liver [14] = experiment: Metabolic stability in rat liver assessed as (2S)-2-((((2R,3R,4R,5R)-5-(2-amino-6-methoxy-9H-purin-9-yl)-4-fluoro-3-hydroxy-4-methyltetrahydrofuran-2-yl)methoxy)(hydroxy)phosphorylamino)propanoic acid level at 60 uCi, po after 1 hr; assay type: ADME, organism-based; settings: in vivo
Liver [15] = experiment: Metabolic stability in rat liver assessed as ((2R,3R,4R,5R)-5-(2-amino-6-oxo-1H-purin-9(6H)-yl)-4-fluoro-3-hydroxy-4-methyltetrahydrofuran-2-yl)methyl dihydrogen phosphate level at 60 uCi, po after 6 hrs; assay type: ADME, organism-based; settings: in vivo
Plasma [16] = experiment: Metabolic stability in rat plasma assessed as beta-D-2'-Deoxy-2'-R-fluoro-2'-beta-C-methylguanosine level at 60 uCi, po after 1 hr; assay type: ADME, organism-based; settings: in vivo
Plasma [17] = experiment: Metabolic stability in rat plasma assessed as beta-D-2'-Deoxy-2'-R-fluoro-2'-beta-C-methylguanosine level at 60 uCi, po after 6 hrs; assay type: ADME, organism-based; settings: in vivo
Liver [18] = experiment: Metabolic stability in rat liver assessed as ((2R,3R,4R,5R)-5-(2-amino-6-oxo-1H-purin-9(6H)-yl)-4-fluoro-3-hydroxy-4-methyltetrahydrofuran-2-yl)methyl dihydrogen phosphate level at 60 uCi, po after 1 hr; assay type: ADME, organism-based; settings: in vivo
Hepatitis C virus [19] = experiment: Antiviral activity against HCV by cell-based replicon assay; assay type: functional, Hepacivirus hominis
[20] = Cytotoxicity against human CEM cells after 96 hrs by MTS assay; assay type: cell-based; settings: CEM (CCRF-CEM) cells
CCRF-CEM [21] = experiment: Cytotoxicity against human CEM cells assessed as mitochondrial COX2 DNA level up to 100 uM after 14 days by RT-PCR analysis; assay type: cell-based; settings: 336 h
Hepatitis C virus [22] = experiment: Antiviral activity against HCV harboring NS5B polymerase S282T mutant infected in human HuH7 cells by cell-based replicon assay; assay type: functional, Hepacivirus hominis, Huh-7
[23] = Cytotoxicity against human HuH7 cells after 96 hrs by MTS assay; assay type: cell-based, Huh-7
[24] = Half life in simulated intestinal fluid; assay type: ADME
[25] = Half life in human plasma; assay type: ADME, cell-free
Hepatocyte = experiment: Increase of cellular triphosphate level in human primary hepatocytes cells at 100 uM after 24 hrs by HPLC analysis; assay type: functional
[26] = Cytotoxicity against human […] cells after 96 hrs by MTS assay; assay type: cell-based
Hepatitis C virus [27] = experiment: Antiviral activity against HCV infected in human HuH7 cells by cell-based replicon assay; assay type: functional, Hepacivirus hominis, Huh-7
[28] = Half life in simulated gastrointestinal fluid; assay type: ADME
Huh-7 = experiment: Increase of cellular triphosphate level in human HuH7 cells at 100 uM after 48 hrs by HPLC analysis; assay type: functional
CCRF-CEM [29] = experiment: Cytotoxicity against human CEM cells assessed as mitochondrial rDNA level up to 100 uM after 14 days by RT-PCR analysis; assay type: cell-based; settings: 336 h
HepG2 [30] = experiment: Cytotoxicity against human HepG2 cells assessed as mitochondrial COX2 DNA level up to 100 uM after 14 days by RT-PCR analysis; assay type: cell-based; settings: hepg2, 336 h
HepG2 [31] = experiment: Cytotoxicity against human HepG2 cells assessed as mitochondrial rDNA level up to 100 uM after 14 days by RT-PCR analysis; assay type: cell-based; settings: hepg2, 336 h
[32] = Half life in human liver S9 fraction; assay type: ADME, subcellular
[33] = Cytotoxicity against human HepG2 cells after 96 hrs by MTS assay; assay type: cell-based
[34] = Inhibition of HCV NS5B polymerase; set-up: species or system Hepacivirus hominis

`[3H]c1nc2c(OC)nc(N)nc2n1[C@@H]1O[C@H](COP(=O)(O)N[C@@H](C)C(=O)OC(C)C)[C@@H](O)[C@@]1(C)F` gave a Stability (Liver [1]) of 4224 cpm, a Stability (Liver [2]) of 460 cpm and a Stability (Plasma [3]) of 288 cpm. The Stability (Plasma [4]) was 368 cpm, the Stability (Liver [5]) was 384 cpm and the Stability (Liver [6]) was 1620 cpm. The Stability (Plasma [7]) was 1112 cpm, the Stability (Liver [8]) was 988 cpm and the Stability (Plasma [9]) was 272 cpm. The Stability (Plasma [10]) was 1160 cpm, the Stability (Liver [11]) was 572 cpm and the Stability (Plasma [12]) was 920 cpm. It also gave a Stability (Liver [13]) of 11512 cpm, a Stability (Liver [14]) of 1648 cpm and a Stability (Liver [15]) of 1920 cpm. It also gave a Stability (Plasma [16]) of 1376 cpm, a Stability (Plasma [17]) of 3848 cpm and a Stability (Liver [18]) of 1828 cpm.

Compound `C[C@@]1(F)[C@H](O)[C@@H](CO)O[C@H]1n1cnc2c(O)nc(N)nc21` has an EC90 (Hepatitis C virus [19]) of 69.2 µM.

With `COc1nc(N)nc2c1ncn2[C@@H]1O[C@H](COP(=O)(N[C@@H](C)C(=O)OC(C)C)Oc2ccccc2)[C@@H](O)[C@@]1(C)F` (stereo in doubt; 23) the CC50 at 96 h [20] was over 100 µM, the Activity (CCRF-CEM [21]) was “Non-toxic” and the EC90 (Hepatitis C virus [22]) was 0.024 µM. The CC50 at 96 h [23] was over 100 µM, the half-life [24] was over 20 h and the half-life [25] was over 24 h. It also gave an Activity (Hepatocyte) of 0.12 mM, a CC50 at 96 h [26] of over 100 µM and an EC90 (Hepatitis C virus [27]) of 0.02 µM. For the same compound, the half-life [28] was 14 h, the Activity (Huh-7) was 0.12 mM and the Activity (CCRF-CEM [29]) was “Non-toxic”. For the same compound, the Activity (HepG2 [30]) was “Non-toxic”, the Activity (HepG2 [31]) was “Non-toxic” and the half-life [32] was 0.2 h. The CC50 at 96 h [33] was 62 µM.

With `C[C@@]1(F)[C@H](O)[C@@H](COP(=O)(O)OP(=O)(O)OP(=O)(O)O)O[C@H]1n1cnc2c(=O)[nH]c(N)nc21` [PSI-352666] the IC50 [34] was 5.94 µM.

From ChEMBL document CHEMBL1671830, “Discovery of PSI-353661, a Novel Purine Nucleotide Prodrug for the Treatment of HCV Infection” (ACS Med Chem Lett, 2011)
